Experimental data reported in PMC11788587, “Validating Low‐Dose Iohexol as a Marker for Glomerular Filtration Rate by In Vitro and In Vivo Studies” (Clinical and Translational Science, 2025).

Biological target: T1, hMATE1 (Homo sapiens, UniProt Q96FL8)
T1 construct: expressed in transfected cells; host or cells: HEK-293 (293) cells, pEBTetD plasmid, doxycycline-induced
T1 sequence (Q96FL8 1-570): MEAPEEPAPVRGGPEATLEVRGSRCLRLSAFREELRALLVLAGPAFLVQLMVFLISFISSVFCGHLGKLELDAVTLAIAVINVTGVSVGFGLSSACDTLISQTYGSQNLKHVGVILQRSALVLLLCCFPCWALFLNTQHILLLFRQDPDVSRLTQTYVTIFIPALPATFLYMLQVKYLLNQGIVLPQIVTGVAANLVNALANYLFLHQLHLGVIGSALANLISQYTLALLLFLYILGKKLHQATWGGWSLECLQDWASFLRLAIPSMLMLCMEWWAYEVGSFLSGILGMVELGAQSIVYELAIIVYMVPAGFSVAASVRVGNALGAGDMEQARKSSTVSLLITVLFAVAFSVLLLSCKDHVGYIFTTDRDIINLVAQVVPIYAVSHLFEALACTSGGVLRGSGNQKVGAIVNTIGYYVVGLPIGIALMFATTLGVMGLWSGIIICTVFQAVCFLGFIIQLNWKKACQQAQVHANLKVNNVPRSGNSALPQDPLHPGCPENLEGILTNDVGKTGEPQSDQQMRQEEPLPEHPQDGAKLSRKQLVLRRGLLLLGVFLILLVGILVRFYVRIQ
Assay: Inhibition of hMATE1-mediated MPP+ uptake, stably transfected 293 cells
Type: cell-based
Conditions: substrate 3 µM MPP+, median (95% CI)
Description: We characterized the inhibitory potential of iohexol on major drug transporters recommended by regulatory agencies, which were previously assessed in a clinical transporter phenotyping cocktail study. These transporters include hOAT1, hOAT3, hOCT1, hOCT2, hMATE1, hMATE2K, human organic anion transporter polypeptides (hOATP)1B1, hOATP1B3, and human multidrug resistance protein (hMDR)1. Additionally, we investigated whether iohexol is a substrate for any of the renal transporters among these, including hOAT1/3, hOCT1/2, and hMATE1/2K. Cell‐based uptake assays were used to assess the activities of hOAT1/3, hOCT1/2, hMATE1/2K, and hOATP1B1/1B3. Inside‐out membrane vesicle uptake assays were used to evaluate the activity of hMDR1.
To determine the maximal inhibitory potential of iohexol, intracellular accumulation of a standard substrate was measured with and without the clinically relevant highest concentrations of iohexol. Control inhibitors were tested in each experiment.
In all subsequent in vitro studies, control experiments were conducted to validate the results. These included positive controls for substrates and inhibitors, as well as cells either without transporter expression or transfected with an empty vector, and control vesicles. Each condition, including cells or vesicles with the transporter and their respective controls, was analyzed in at least three replicates. For detailed information on materials, methods, and data analysis techniques used, refer to the Supporting Information. […]
R version 4.2.1 (R Foundation for Statistical Computing, Vienna, Austria) was used for statistical evaluations and data visualization. The data analysis approach for the in vitro study was detailed by Hsin CH et al..^1 In brief, for transport assays, the initial uptake rate was calculated by normalizing the substrate concentration to both the protein concentration and the incubation time for each dish or well. The transporter-mediated uptake rate (net uptake) was determined by performing an element-wise subtraction of uptake rates from different conditions. […]

Inhibitory effect (% reduction of specific activity) (20 mM iohexol): no notable inhibitory effects | inhibition at 1000 µM (HEK293, 1 mM iohexol, read-out: Inhibitory effect (% reduction of specific activity)): 5.4% | inhibition at 20000 µM (HEK293, 20 mM iohexol, read-out: Inhibitory effect (% reduction of specific activity)): 12%
SMILES: CC(=O)N(CC(O)CO)c1c(I)c(C(=O)NCC(O)CO)c(I)c(C(=O)NCC(O)CO)c1I (stereo not drawn) [iohexol]
